According to patent US10238670B2, “9-aminomethyl minocycline compounds and methods of use thereof in urinary tract infection (UTI) treatment” (Paratek Pharmaceuticals, Inc., priority 2016, dated 2019):
Values after ≈ are worked out from the molar mass of the structure shown. One block for each molecule: values may come before it.

Experiments:
Assay in all cases: In vitro MIC, 2010 surveillance isolates
E. coli ESBL− = format: cell-based, Escherichia coli
E. coli ESBL+ = format: cell-based, Escherichia coli
K. pneumoniae ESBL− = format: cell-based, Klebsiella pneumoniae
K. pneumoniae ESBL+ = format: cell-based, Klebsiella pneumoniae
K. oxytoca = format: cell-based
E. cloacae CeftazS = format: cell-based; design: MIC90: unit: µg/mL
E. cloacae CeftazR = format: cell-based
Enterobacter spp = format: cell-based
A. baumanii = format: cell-based
Acinetobacter spp = format: cell-based

MIC90 (E. coli ESBL−; Asia/Pac, N=282): ≤ 0.12 µg/mL
MIC90 (E. coli ESBL−; Europe, N=1533): ≤ 0.12 µg/mL
MIC90 (E. coli ESBL−; L. Amer, N=389): ≤ 0.12 µg/mL
MIC90 (E. coli ESBL−; N America, N=1172): ≤ 0.12 µg/mL
MIC90 (E. coli ESBL+; Asia/Pac, N=219): 0.25 µg/mL (≈ 0.835 µM)
MIC90 (E. coli ESBL+; Europe, N=274): 0.25 µg/mL (≈ 0.835 µM)
MIC90 (E. coli ESBL+; L. Amer, N=168): 0.25 µg/mL (≈ 0.835 µM)
MIC90 (E. coli ESBL+; N America, N=134): 0.25 µg/mL (≈ 0.835 µM)
MIC90 (K. pneumoniae ESBL−; Asia/Pac, N=189): 0.5 µg/mL (≈ 1.67 µM)
MIC90 (K. pneumoniae ESBL−; Europe, N=361): 0.25 µg/mL (≈ 0.835 µM)
MIC90 (K. pneumoniae ESBL−; L. Amer, N=160): 0.25 µg/mL (≈ 0.835 µM)
MIC90 (K. pneumoniae ESBL−; N America, N=671): 0.25 µg/mL (≈ 0.835 µM)
MIC90 (K. pneumoniae ESBL+; Asia/Pac, N=124): > 8 µg/mL
MIC90 (K. pneumoniae ESBL+; Europe, N=151): 2 µg/mL (≈ 6.68 µM)
MIC90 (K. pneumoniae ESBL+; L. Amer, N=209): > 8 µg/mL
MIC90 (K. pneumoniae ESBL+; N America, N=108): > 8 µg/mL
MIC90 (K. oxytoca; Asia/Pac, N=17): 0.5 µg/mL (≈ 1.67 µM)
MIC90 (K. oxytoca; Europe, N=158): 0.25 µg/mL (≈ 0.835 µM)
MIC90 (K. oxytoca; L. Amer, N=25): 0.25 µg/mL (≈ 0.835 µM)
MIC90 (K. oxytoca; N America, N=177): 0.25 µg/mL (≈ 0.835 µM)
MIC90 (E. cloacae CeftazS; Asia/Pac, N=100): 1 (1)
MIC90 (E. cloacae CeftazS; Europe, N=183): 0.5 µg/mL (≈ 1.67 µM)
MIC90 (E. cloacae CeftazS; L. Amer, N=57): 0.5 µg/mL (≈ 1.67 µM)
MIC90 (E. cloacae CeftazS; N America, N=210): 0.5 µg/mL (≈ 1.67 µM)
MIC90 (E. cloacae CeftazR; Asia/Pac, N=63): 1 µg/mL (≈ 3.34 µM)
MIC90 (E. cloacae CeftazR; Europe, N=72): 1 µg/mL (≈ 3.34 µM)
MIC90 (E. cloacae CeftazR; L. Amer, N=42): 0.5 µg/mL (≈ 1.67 µM)
MIC90 (E. cloacae CeftazR; N America, N=77): 8 µg/mL (≈ 26.7 µM)
MIC90 (Enterobacter spp; Asia/Pac, N=52): 1 µg/mL (≈ 3.34 µM)
MIC90 (Enterobacter spp; Europe, N=82): 1 µg/mL (≈ 3.34 µM)
MIC90 (Enterobacter spp; L. Amer, N=42): 1 µg/mL (≈ 3.34 µM)
MIC90 (Enterobacter spp; N America, N=101): 1 (1)
MIC90 (A. baumanii; Asia/Pac, N=275): > 8 µg/mL
MIC90 (A. baumanii; Europe, N=145): > 8 µg/mL
MIC90 (A. baumanii; L. Amer, N=275): > 8 µg/mL
MIC90 (A. baumanii; N America, N=154): > 8 µg/mL
MIC90 (Acinetobacter spp; Europe, N=43): > 8 µg/mL
MIC90 (Acinetobacter spp; N America, N=42): 8 µg/mL (≈ 26.7 µM)
Structure (SMILES): C[C@@H](O)[C@H]1C(=O)N2C(C(=O)O)=C(SCCN=CN)C[C@H]12 [Imipenem]
% R (resistance) (E. coli ESBL−; Asia/Pac, Eucast breakpoints): 0%
% R (resistance) (E. coli ESBL−; Europe, Eucast breakpoints): 0%
% R (resistance) (E. coli ESBL−; L. Amer, CLSI breakpoints): 0%
% R (resistance) (E. coli ESBL−; N America, CLSI breakpoints): 0%
% R (resistance) (E. coli ESBL+; Asia/Pac, Eucast breakpoints): 0.5%
% R (resistance) (E. coli ESBL+; Europe, Eucast breakpoints): 0%
% R (resistance) (E. coli ESBL+; L. Amer, CLSI breakpoints): 0.6%
% R (resistance) (E. coli ESBL+; N America, CLSI breakpoints): 0%
% R (resistance) (K. pneumoniae ESBL−; Asia/Pac, Eucast breakpoints): 0%
% R (resistance) (K. pneumoniae ESBL−; Europe, Eucast breakpoints): 0%
% R (resistance) (K. pneumoniae ESBL−; L. Amer, CLSI breakpoints): 0%
% R (resistance) (K. pneumoniae ESBL−; N America, CLSI breakpoints): 0%
% R (resistance) (K. pneumoniae ESBL+; Asia/Pac, Eucast breakpoints): 10.5%
% R (resistance) (K. pneumoniae ESBL+; Europe, Eucast breakpoints): 7.9%
% R (resistance) (K. pneumoniae ESBL+; L. Amer, CLSI breakpoints): 18.7%
% R (resistance) (K. pneumoniae ESBL+; N America, CLSI breakpoints): 26.9%
% R (resistance) (K. oxytoca; Asia/Pac, Eucast breakpoints): 0%
% R (resistance) (K. oxytoca; Europe, Eucast breakpoints): 0%
% R (resistance) (K. oxytoca; L. Amer, CLSI breakpoints): 4%
% R (resistance) (K. oxytoca; N America, CLSI breakpoints): 0.6%
% R (resistance) (E. cloacae CeftazS; Europe, Eucast breakpoints): 0%
% R (resistance) (E. cloacae CeftazS; L. Amer, CLSI breakpoints): 0%
% R (resistance) (E. cloacae CeftazS; N America, CLSI breakpoints): 0%
% R (resistance) (E. cloacae CeftazR; Asia/Pac, Eucast breakpoints): 0%
% R (resistance) (E. cloacae CeftazR; Europe, Eucast breakpoints): 1.4%
% R (resistance) (E. cloacae CeftazR; L. Amer, CLSI breakpoints): 0%
% R (resistance) (E. cloacae CeftazR; N America, CLSI breakpoints): 11.7%
% R (resistance) (Enterobacter spp; Asia/Pac, Eucast breakpoints): 0%
% R (resistance) (Enterobacter spp; Europe, Eucast breakpoints): 0%
% R (resistance) (Enterobacter spp; L. Amer, CLSI breakpoints): 0%
% R (resistance) (Enterobacter spp; N America, CLSI breakpoints): 1 (1) %
% R (resistance) (A. baumanii; Asia/Pac, Eucast breakpoints): 72.4%
% R (resistance) (A. baumanii; Europe, Eucast breakpoints): 66.2%
% R (resistance) (A. baumanii; L. Amer, CLSI breakpoints): 75.6%
% R (resistance) (A. baumanii; N America, CLSI breakpoints): 53.2%
% R (resistance) (Acinetobacter spp; Asia/Pac, Eucast breakpoints): 11.1%
% R (resistance) (Acinetobacter spp; Europe, Eucast breakpoints): 30.2%
% R (resistance) (Acinetobacter spp; L. Amer, CLSI breakpoints): 44.4%
% R (resistance) (Acinetobacter spp; N America, CLSI breakpoints): 4.8%

Structure (SMILES): CC(C)(O/N=C(\C(=O)N[C@@H]1C(=O)N2C(C(=O)[O-])=C(C[n+]3ccccc3)CS[C@H]12)c1csc(N)n1)C(=O)O [ceftazidime]
resistance rates for ESBL-producing clinical isolates (E. coli ESBL+; E. coli): 50%
